Test results: paper PMC4656118 (Journal of biomolecular screening, 2014)

How the values were obtained:
[1] = target: N-LANA peptide binding to nucleosomes (histones H2A/H2B) (Gallus gallus, UniProt P02263+P0C1H3); test: biochemical; set-up: species or system chicken; settings: for Identified as hit in pilot screen (Z score < −2 for both replicates): pilot screen of known bioactives; for Scored positive for inhibition in HTS at ICCB-L/NSRB: 49,810 small molecules screened in duplicate, Z score
salmon sperm DNA = test: Counterscreen to detect DNA intercalators; type: binding; settings: for DNA intercalation (competition with acridine orange): pilot screen hits at increasing concentrations; for Competition with acridine orange for DNA intercalation (acridine orange mP values): assay validation, increasing concentration, monensin up to 1uM
[2] = target: GST LANA1-23 binding to nucleosomes (Gallus gallus, UniProt P02263+P0C1H3); test: ELISA, inhibition of GST LANA1-23 binding to nucleosomes; set-up: species or system chicken; settings: increasing concentrations of competitor or compound

Compound	Confirmation of inhibitory activity by FP ([1]; pilot screen hits retested at increasing concentrations)	Identified as hit in pilot screen (Z score < −2 for both replicates) [1]	DNA intercalation (competition with acridine orange) (salmon sperm DNA)	Competition with acridine orange for DNA intercalation (acridine orange mP values) (salmon sperm DNA)	Inhibition of GST LANA1-23 binding to nucleosomes by ELISA [2]	IC50 [1] [µM]	Scored positive for inhibition in HTS at ICCB-L/NSRB [1]	Inhibition of LANA 1-23 binding to nucleosomes ([1]; negative control for HTS)
CC[C@@]1(O)C(=O)OCc2c1cc1n(c2=O)Cc2cc3cc(O)ccc3nc2-1 [10-HCT, 10-hydroxycamptothecin]	could not be confirmed	identified	inconsistently competed	–	–	–	–	–
CC[n+]1c(-c2ccccc2)c2cc(N)ccc2c2ccc(N)cc21 [EtBr, ethidium bromide]	–	–	–	reduced acridine orange mP values	–	–	–	–
O=C1c2c(O)ccc(O)c2C(=O)c2c(NCCNCCO)ccc(NCCNCCO)c21 [MTX, mitoxantrone]	–	identified	scored positive for DNA intercalation	reduced acridine orange mP values	inhibitory activity	< 25	scored positive	–
CC[C@@]1([C@@H]2O[C@@H]([C@H]3O[C@@](O)(CO)[C@H](C)C[C@@H]3C)C[C@@H]2C)CC[C@H]([C@]2(C)CC[C@]3(C[C@H](O)[C@@H](C)[C@@H]([C@@H](C)[C@@H](OC)[C@H](C)C(=O)O)O3)O2)O1 [Monensin, monensin]	–	–	–	negligible effect	–	–	–	did not inhibit
CC[N+](C)(CC)CCC[n+]1c(-c2ccccc2)c2cc(N)ccc2c2ccc(N)cc21.[I-].[I-] [PI, propidium iodide]	–	–	–	reduced acridine orange mP values	–	–	–	–
COc1cccc2c1C(=O)c1c(O)c3c(c(O)c1C2=O)C[C@@](O)(C(C)=O)C[C@@H]3O[C@H]1C[C@H](N)[C@H](O)[C@H](C)O1 [daunorubicin]	–	identified	scored positive for DNA intercalation	–	–	–	scored positive	–
COc1cccc2c1C(=O)c1c(O)c3c(c(O)c1C2=O)C[C@@](O)(C(=O)CO)C[C@@H]3O[C@H]1C[C@H](N)[C@H](O)[C@H](C)O1 [doxorubicin]	–	identified	scored positive for DNA intercalation	–	inhibitory activity	< 25	scored positive	–
